Experimental data from US11813333B2, “Use of high molecular weight polyethylene glycol compositions to restore the efficacy of pegylated therapeutic compositions” (THE UNIVERSITY OF NORTH CAROLINA AT CHAPEL HILL, priority 2017, dated 2023).

What was measured:
[1] = test system: anti-PEG antibodies (APA); settings: mouse, in vivo
Protocol: Adult BALB/c mice (18-22 weeks, female, Charles River) were passively immunized with APA by the intravenous administration of mouse anti-PEG IgG1 (Silver Lake Research, CH2076, lot K0868) 24 hours prior to the intravenous administration of PLD (3 mg/kg, Doxil®, Janssen Products, LP). […] Other groups received PBS 0.5 hours prior to the administration of PLD as a control. At time points of 0.083, 3, 6, 24, 48, and 96 hours following PLD administration, mice were anesthetized using ketamine (100 mg/kg, i.p.) and medetomidine hydrochloride (1 mg/kg, i.p.), then sacrificed via cardiac puncture (into sodium heparin vacutainers) and cervical dislocation. The blood, liver, spleen, and lungs were collected for doxorubicin quantification.
Briefly, blood samples were collected in sodium heparin tubes at 0.083, 3, 6, 24, 48 and 96 hours after the administration of PLD. Blood was centrifuged at 1,500 g for 5 minutes to obtain plasma. Encapsulated and released doxorubicin in plasma were separated using solid phase separation. Tissues of interest were flash frozen in liquid nitrogen and stored at −80° C. until processing. Upon processing, tissues were thawed, weighed, and diluted in a 1:3 ratio with phosphate buffered saline prior to homogenizing with a Precellys 24 bead mill homogenizer (Omni International Inc, Kennesaw, GA). Samples were further processed by addition of 800 μL extraction solution (acetonitrile with 100 ng/mL daunorubicin internal standard) to 200 μL of plasma or tissue homogenate. The samples were vortexed for 10 minutes and centrifuged at 10,000 g for 10 minutes at 4° C. […] The samples were then vortexed, transferred to autosampler vials, and analyzed by high-performance liquid chromatography with fluorescence detection (HPLC-FL) set to excitation wavelength 490 nm/emission wavelength 590 nm. […] Samples that returned a concentration above the quantitative limit were diluted to fall within the quantitative range and reinjected.

[2] = test system: anti-PEG antibodies (APA); settings: patients with chronic refractory gout; cited from earlier work

time by which the vast majority of the PLD is found in the liver (delayed hepatic accumulation) [1] [h] | Substance | fraction of patients that developed APA leading to rapid clearance of the enzyme from the blood [2]
24 | polyethylene glycol [PEG 20 kDa] | 
96 | polyethylene glycol [PEG 40 kDa] | 
 | pegloticase | roughly one-third
3 | polyethylene glycol [PEG 10 kDa] | 
